Laboratory results: patent US20240131032A1, “AN ACTIVITY-GUIDED MAP OF ELECTROPHILE-CYSTEINE INTERACTIONS IN PRIMARY HUMAN IMMUNE CELLS” (The Scripps Research Institute, priority 2019, published 2024)

Assays:
Format in all cases: binding
ERCC3 = molecular target: T1, ERCC3 (Homo sapiens, UniProt P19447); test: isoTOP-ABPP and TMT-ABPP cysteine engagement, ERCC3
T1 construct: endogenous in cells; host or cells: primary human T cells
T1 sequence (P19447 1-782): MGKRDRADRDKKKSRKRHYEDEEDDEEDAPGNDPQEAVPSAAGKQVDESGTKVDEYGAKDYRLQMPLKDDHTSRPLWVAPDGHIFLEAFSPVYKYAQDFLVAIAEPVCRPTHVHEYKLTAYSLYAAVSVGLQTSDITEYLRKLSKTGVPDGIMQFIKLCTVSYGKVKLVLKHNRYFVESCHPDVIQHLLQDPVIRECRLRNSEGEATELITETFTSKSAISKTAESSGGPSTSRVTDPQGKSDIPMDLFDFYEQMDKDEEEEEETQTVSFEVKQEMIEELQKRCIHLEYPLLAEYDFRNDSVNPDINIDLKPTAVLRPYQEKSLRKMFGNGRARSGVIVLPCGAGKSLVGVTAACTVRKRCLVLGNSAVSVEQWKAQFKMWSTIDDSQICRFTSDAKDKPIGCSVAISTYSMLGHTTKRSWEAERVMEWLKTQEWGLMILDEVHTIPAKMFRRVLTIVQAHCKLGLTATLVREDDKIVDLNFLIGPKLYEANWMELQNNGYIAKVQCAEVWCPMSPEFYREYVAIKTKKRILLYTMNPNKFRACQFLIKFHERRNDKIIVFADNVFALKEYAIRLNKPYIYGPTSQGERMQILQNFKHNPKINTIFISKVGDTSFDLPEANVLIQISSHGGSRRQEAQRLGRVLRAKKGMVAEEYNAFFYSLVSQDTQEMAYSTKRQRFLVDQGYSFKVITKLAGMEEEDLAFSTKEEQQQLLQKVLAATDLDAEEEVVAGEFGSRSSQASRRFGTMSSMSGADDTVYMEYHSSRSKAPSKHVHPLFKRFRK
Procedure: (§1) Activated or expanded T cells were re-suspended in RPMI media supplemented with 10% FBS, L-glutamine (2 mM), penicillin (100 U/mL), and streptomycin (100 μg/mL) at 2×10^6 cells/mL. The compounds were added to cells as 1000×DMSO stocks and mixed well with the media by pipetting up and down after addition. The cells were kept at 37° C. in 5% CO2 containing incubators for 3 h (or otherwise specified times), then pelleted by centrifugation (524 g, 5 min, 4° C.), washed with cold PBS (10 mL) and transferred to Eppendorf tubes (1 mL PBS). The cells were pelleted again (524 g, 5 min, 4° C.), flash-frozen, and kept at −80° C. until further analysis.
Activated or expanded primary human T cells were re-suspended in RPMI (1×10^6 cells/mL) containing 10% fetal bovine serum (FBS), penicillin (100 U/mL), streptomycin ([…]), and L-glutamine (2 mM). The cells were treated with DMSO or compounds for 3 h, pelleted (524 g, 5 min), washed with PBS, and lysed by sonication (2×8 pulses). Soluble and particulate proteomic fractions were separated by ultracentrifugation (100,000 g, 45 min), and protein concentration was normalized to 1.7 mg/mL using a standard DC protein assay (Bio-Rad). The resulting proteomes were analyzed by competitive isotopic Tandem Orthogonal Proteolysis Activity-Based Protein Profiling (isoTOP-ABPP).
Samples (500 μL, 1.7 mg/mL) were treated with iodoacetamide alkyne (IA-alkyne, 5 μL of 10 mM stock in DMSO, final concentration: 100 μM) for 1 h at ambient temperature. Modified proteins were then conjugated to isotopically labeled, TEV-cleavable biotin tags (TEV-tags) using copper-catalyzed azide-alkyne cycloaddition reaction (CuAAC). Reagents for the CuAAC reaction were pre-mixed prior to their addition to the proteome samples. […]
The heavy/light isoTOP-ABPP ratios (R values) for each unique peptide (DMSO/compound treated) were quantified with in-house CIMAGE software (Weerapana et al., 2010) using default parameters (3 MS1 acquisitions per peak and signal to noise threshold set to 2.5). Site-specific engagement of cysteine residues was assessed by blockade of IA-alkyne probe labeling. […] Ratios for unique peptide sequences were calculated for each experiment; overlapping peptides with the same modified cysteine (e.g., different charge states, elution times or tryptic termini) were grouped together and the median ratio was reported as the final ratio (R). […]

TMEM173 = molecular target: T2, TMEM173 (Homo sapiens, UniProt Q86WV6); test: isoTOP-ABPP and TMT-ABPP cysteine engagement, TMEM173
T2 construct: endogenous in cells; host or cells: primary human T cells
T2 sequence (Q86WV6 whole entry H232R): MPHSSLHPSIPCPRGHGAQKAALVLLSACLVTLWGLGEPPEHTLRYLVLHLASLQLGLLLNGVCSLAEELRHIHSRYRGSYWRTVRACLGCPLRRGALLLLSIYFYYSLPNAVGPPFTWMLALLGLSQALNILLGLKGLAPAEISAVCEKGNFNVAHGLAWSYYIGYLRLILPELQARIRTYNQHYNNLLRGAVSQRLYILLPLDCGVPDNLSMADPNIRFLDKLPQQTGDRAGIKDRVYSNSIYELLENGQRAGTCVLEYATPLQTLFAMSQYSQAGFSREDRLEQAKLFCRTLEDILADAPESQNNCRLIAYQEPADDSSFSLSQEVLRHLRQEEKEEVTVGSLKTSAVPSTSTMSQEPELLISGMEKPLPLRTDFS
Procedure: as §1
(§2) Activated or expanded primary human T cells were re-suspended in RPMI (1×10^6 cells/mL) containing 10% fetal bovine serum (FBS), penicillin (100 U/mL), streptomycin ([…]), and L-glutamine (2 mM). […] The resulting proteomes were analyzed by competitive isotopic Tandem Orthogonal Proteolysis Activity-Based Protein Profiling (isoTOP-ABPP). […]
(§3) The heavy/light isoTOP-ABPP ratios (R values) for each unique peptide (DMSO/compound treated) were quantified with in-house CIMAGE software (Weerapana et al., 2010) using default parameters (3 MS1 acquisitions per peak and signal to noise threshold set to 2.5). Site-specific engagement of cysteine residues was assessed by blockade of IA-alkyne probe labeling. […]

BIRC2 = BIRC2 (Homo sapiens, UniProt Q13490); test: isoTOP-ABPP and TMT-ABPP cysteine engagement, BIRC2; design: endogenous in cells; host or cells: primary human T cells
Sequence of BIRC2 (Q13490 whole entry): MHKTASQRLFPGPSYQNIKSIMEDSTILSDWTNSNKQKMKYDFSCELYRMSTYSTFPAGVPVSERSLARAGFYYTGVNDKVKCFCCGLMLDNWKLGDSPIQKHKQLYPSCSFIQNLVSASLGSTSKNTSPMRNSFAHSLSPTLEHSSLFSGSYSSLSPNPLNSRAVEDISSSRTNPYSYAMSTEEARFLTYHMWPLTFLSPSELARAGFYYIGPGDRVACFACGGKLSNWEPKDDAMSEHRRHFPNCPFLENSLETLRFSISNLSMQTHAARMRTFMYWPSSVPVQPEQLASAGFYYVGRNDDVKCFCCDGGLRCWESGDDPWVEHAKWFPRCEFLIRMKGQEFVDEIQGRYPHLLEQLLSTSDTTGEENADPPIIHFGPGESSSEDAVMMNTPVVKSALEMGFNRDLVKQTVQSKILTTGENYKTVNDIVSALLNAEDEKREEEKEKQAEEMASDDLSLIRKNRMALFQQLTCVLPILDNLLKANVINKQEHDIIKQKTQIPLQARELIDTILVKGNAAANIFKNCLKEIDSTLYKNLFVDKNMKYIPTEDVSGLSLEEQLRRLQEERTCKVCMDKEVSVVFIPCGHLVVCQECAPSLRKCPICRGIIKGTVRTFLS
Procedure: as §1, §2, §3

SMILES | efficacy at ERCC3 C342, BPK-21 with respect to BPK-25 (ERCC3) | engagement of C342 of ERCC3 (ERCC3) | labeling of C91 of TMEM173 (TMEM173) | engagement of C45 of BIRC2 (BIRC2)
C=CC(=O)N(Cc1cccc(Cl)c1Cl)c1ccc(Oc2ccccc2)c(C(F)(F)F)c1 [BPK-21] | higher efficacy | alkylating C342 | direct labeling of C91 | –
C=CC(=O)N(Cc1cccc(Cl)n1)c1ccc(C(=O)Nc2ccccc2)nc1 [BPK-25] | – | alkylating C342 | direct labeling of C91 | –
COC(=O)/C=C/C(=O)OC [DMF, reference compound] | – | – | – | engaged
O=C(CCl)N1CCN(S(=O)(=O)c2ccc(-c3ccncc3)cc2)CC1 [EV-3] | – | – | – | engaged
